Experimental data from paper PMC3770298 (ACS medicinal chemistry letters, 2013).
One block for each compound: values may come before it.

What was measured:
RORα = biological target: T1, RORα (Mus musculus, UniProt P51448); experiment: RORα gene reporter assay; format: cell-based; settings: up to 96 μM
T1 sequence (P51448 1-523): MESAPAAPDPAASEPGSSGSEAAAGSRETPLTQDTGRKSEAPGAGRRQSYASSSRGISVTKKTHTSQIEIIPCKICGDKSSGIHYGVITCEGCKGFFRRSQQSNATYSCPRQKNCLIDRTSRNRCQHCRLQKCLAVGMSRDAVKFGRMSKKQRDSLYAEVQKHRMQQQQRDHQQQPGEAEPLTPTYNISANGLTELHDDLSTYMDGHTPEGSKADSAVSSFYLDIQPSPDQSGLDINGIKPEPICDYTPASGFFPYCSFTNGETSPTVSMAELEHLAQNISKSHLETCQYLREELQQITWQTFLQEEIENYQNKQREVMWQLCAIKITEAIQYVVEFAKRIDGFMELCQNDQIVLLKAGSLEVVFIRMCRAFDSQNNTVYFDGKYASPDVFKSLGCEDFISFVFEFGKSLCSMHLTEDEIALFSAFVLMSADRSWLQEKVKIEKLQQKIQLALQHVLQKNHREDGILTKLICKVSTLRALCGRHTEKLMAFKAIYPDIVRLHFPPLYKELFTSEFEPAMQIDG

DHR3 = biological target: T2, DHR3 (Drosophila melanogaster, UniProt P31396); experiment: DHR3 gene reporter assay; format: cell-based; settings: up to 96 μM
T2 sequence (P31396 1-487): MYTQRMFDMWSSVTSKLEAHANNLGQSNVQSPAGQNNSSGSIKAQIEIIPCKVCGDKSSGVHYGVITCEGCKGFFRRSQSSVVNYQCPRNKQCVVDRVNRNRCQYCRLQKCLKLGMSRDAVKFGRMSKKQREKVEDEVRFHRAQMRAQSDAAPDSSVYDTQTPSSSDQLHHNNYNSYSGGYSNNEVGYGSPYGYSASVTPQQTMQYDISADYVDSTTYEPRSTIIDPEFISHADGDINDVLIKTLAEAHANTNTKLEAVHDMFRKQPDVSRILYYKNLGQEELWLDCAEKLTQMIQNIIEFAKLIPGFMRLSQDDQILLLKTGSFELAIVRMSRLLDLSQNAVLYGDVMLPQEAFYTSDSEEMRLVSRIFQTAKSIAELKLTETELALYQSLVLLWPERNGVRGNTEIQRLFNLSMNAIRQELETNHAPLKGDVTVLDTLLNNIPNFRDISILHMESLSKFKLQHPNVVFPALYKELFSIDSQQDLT

VP16 = format: cell-based; settings: up to 96 μM
Th1 cell differentiation = experiment: Th1 cell differentiation; format: cell-based, mouse; settings: 20 μM; data not shown
[1] = tested on: mouse TH17 cell differentiation; experiment: mouse TH17 cell differentiation; format: cell-based; settings: read-out: inhibition of mouse TH17 cell differentiation
RORγ = biological target: T3, RORγ (Mus musculus, UniProt P51450); experiment: cell-based RORγ gene reporter assay; settings: for IC50 (μM) (RORγ): Table 1, region A, mean of four replicates from two independent experiments
T3 sequence (P51450 1-516): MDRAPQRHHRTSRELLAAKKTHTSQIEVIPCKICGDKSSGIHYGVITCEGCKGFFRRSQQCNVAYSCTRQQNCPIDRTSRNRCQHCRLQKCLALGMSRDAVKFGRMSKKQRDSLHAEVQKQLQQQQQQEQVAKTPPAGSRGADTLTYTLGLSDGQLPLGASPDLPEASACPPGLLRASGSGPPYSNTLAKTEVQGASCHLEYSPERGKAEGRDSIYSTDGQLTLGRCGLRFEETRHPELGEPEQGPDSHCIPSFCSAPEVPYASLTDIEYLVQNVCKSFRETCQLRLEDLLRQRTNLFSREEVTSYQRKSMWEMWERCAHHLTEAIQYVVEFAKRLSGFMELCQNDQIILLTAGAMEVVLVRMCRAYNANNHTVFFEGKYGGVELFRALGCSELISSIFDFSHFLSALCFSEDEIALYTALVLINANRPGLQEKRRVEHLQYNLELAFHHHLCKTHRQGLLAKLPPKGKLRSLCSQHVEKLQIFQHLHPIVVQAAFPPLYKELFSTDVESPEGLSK

[2] = biological target: T4, RORγ ligand binding domain (LBD) (Homo sapiens, UniProt P51449); experiment: fluoroprobe; settings: competition assay
T4 sequence (P51449 269-508 limits assumed): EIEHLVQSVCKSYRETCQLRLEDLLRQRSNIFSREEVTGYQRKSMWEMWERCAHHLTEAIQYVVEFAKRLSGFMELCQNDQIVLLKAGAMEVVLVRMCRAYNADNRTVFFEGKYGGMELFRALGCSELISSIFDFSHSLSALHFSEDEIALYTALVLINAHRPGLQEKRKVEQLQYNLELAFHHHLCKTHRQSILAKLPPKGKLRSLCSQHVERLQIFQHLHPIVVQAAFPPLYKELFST

SMILES: COc1cc(O)c(C(CC(=O)N2CCCC(C)C2)c2ccc3c(c2)OCO3)c(OC)c1 (stereo not drawn) [Compound 4a]
activity in the RORα assay (RORα): no activity
activity in the DHR3 assay (DHR3): no activity
activity in the VP16 assay (VP16): no activity
effect on Th1 cell differentiation (Th1 cell differentiation): no effect
inhibition at 20 µM [1]: 84%

IC50 (μM) (RORγ) (RORγ): inactive
displacement of hydroxycholesterol from RORγ LBD [2]: failed to displace
SMILES: COc1cc(O)c(C(CC(=O)N2CCOCC2)c2ccc3c(c2)OCO3)c(OC)c1 (stereo not drawn) [Compound 4k]

IC50 (μM) (RORγ) (RORγ): inactive
SMILES: COc1cc(O)c(C(CC(=O)N2C[C@@H](C)N[C@@H](C)C2)c2ccc3c(c2)OCO3)c(OC)c1 (stereo partly drawn) [Compound 4m]

SMILES: C[C@H]1O[C@@H](O[C@H]2[C@@H](O)C[C@H](O[C@H]3[C@@H](O)C[C@H](O[C@H]4CC[C@@]5(C)[C@H](CC[C@@H]6[C@@H]5C[C@@H](O)[C@]5(C)[C@@H](C7=CC(=O)OC7)CC[C@]65O)C4)O[C@@H]3C)O[C@@H]2C)C[C@H](O)[C@@H]1O [Digoxin, reference compound]
result in qHTS for RORγ antagonists (RORγ; qHTS of 310,000 compounds with VP16 counterscreen): selective antagonists
